Drawing on patent US10414811B2, “Protease-resistant lipidated GLP-1 analogs” (MEDIMMUNE LIMITED, priority 2015, dated 2019), this text covers EC50 for six molecules.

Where two headings read alike, the source gives them in different places. Square brackets hold non-standard residues; d marks the D form. Peptide text beside a SMILES is read from it. αMeF = C[C@](N)(Cc1ccccc1)C(=O)O; αMeK = C[C@](N)(CCCCN)C(=O)O; αMeS = C[C@](N)(CO)C(=O)O; Aib = CC(C)(N)C(=O)O

What all share (type): cell-based
For test [1], the target named is T1, human GLP-1 receptor (GLP-1R) (Homo sapiens, UniProt P43220).
T1 construct: expressed in transfected cells
Nature of the test: cAMP assay, human GLP-1R cells. The gist of the method: (§1)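 Peptide-stimulated cAMP measured by two-step HTRF after a 30 min room-temperature incubation with receptor-expressing cells (hGLP-1R, hGIPR at 1×10^5 cells/ml; hGCGR at 2×10^5 cells/ml). Duplicate dilutions; EC50 from 4-parameter logistic fit of % Delta F.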
Background: Cyclic AMP is a second messenger, typically raised through Gs and lowered through Gi signalling.

Test [2] has as its target T2, human glucagon receptor (GCGR) (Homo sapiens, UniProt P47871).
T2 construct: expressed in transfected cells
Nature of the test: cAMP assay, human GCGR cells. Conditions: cAMP assay. The gist of the method:
as §1

Test [3] addresses T3, human glucose-dependent insulinotropic peptide receptor (GIPR) (Homo sapiens, UniProt P48546).
T3 construct: expressed in transfected cells
T3 sequence (P48546 22-466): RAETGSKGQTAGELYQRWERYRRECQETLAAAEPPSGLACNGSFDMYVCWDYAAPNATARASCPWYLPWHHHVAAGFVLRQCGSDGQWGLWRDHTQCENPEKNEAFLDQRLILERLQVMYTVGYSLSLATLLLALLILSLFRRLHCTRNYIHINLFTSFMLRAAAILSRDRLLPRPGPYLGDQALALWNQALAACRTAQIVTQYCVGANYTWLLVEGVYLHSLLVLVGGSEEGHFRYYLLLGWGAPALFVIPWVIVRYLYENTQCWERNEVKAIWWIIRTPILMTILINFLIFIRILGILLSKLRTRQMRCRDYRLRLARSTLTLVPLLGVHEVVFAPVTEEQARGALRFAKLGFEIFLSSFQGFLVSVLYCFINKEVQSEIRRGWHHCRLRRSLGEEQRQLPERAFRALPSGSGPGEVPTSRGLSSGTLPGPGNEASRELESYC
In words: cAMP assay, human GIPR cells. Conditions: cAMP assay. The gist of the method: as §1

Where [4] appears, read: cAMP assay, first determination (n1), read-out: Primary assay EC50 GLP-1R n1.
Setting [5] is: cAMP assay, second determination (n2), read-out: Primary assay EC50 GLP-1R n2.
[6] abbreviates: mean of n1 and n2, read-out: Mean pM GLP-1R.
The mark [7] stands for this setting: first determination (n1), read-out: Primary assay EC50 Gluc-R (n1).
[8] abbreviates: second determination (n2), read-out: Primary assay EC50 Gluc-R (n2).
The mark [9] stands for this setting: first determination (n1), read-out: Primary assay EC50 GIP-R (n1).
Where [10] appears, read: second determination (n2), read-out: Primary assay EC50 GIP-R (n2).

T1 sequence (P43220 24-463): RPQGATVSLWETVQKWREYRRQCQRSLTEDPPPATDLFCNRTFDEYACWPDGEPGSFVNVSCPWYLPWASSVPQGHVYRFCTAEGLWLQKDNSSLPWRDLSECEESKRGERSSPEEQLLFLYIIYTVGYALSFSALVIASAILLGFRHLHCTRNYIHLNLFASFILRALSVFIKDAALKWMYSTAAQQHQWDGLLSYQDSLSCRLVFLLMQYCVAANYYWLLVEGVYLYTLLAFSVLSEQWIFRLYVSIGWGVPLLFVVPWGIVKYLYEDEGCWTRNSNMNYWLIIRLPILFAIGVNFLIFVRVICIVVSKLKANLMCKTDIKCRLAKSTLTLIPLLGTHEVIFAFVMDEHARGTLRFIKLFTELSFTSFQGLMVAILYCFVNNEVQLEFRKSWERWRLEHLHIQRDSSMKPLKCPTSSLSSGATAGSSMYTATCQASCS
T2 sequence (P47871 26-477): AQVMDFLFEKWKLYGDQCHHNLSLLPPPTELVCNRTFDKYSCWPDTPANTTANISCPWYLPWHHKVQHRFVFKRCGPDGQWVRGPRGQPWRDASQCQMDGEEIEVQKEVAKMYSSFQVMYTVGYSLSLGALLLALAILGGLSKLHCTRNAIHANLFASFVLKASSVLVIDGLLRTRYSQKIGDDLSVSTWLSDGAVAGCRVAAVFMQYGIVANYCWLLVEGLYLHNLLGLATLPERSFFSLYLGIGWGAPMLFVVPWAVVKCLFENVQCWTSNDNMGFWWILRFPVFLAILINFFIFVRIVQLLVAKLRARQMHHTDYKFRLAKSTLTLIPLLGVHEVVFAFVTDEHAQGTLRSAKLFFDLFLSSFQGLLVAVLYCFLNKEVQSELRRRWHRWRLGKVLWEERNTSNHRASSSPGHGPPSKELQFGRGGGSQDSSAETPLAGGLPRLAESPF

Turning to `CC[C@H](C)[C@H](NC(=O)[C@](C)(Cc1ccccc1)NC(=O)[C@H](CCC(=O)O)NC(=O)[C@](C)(CCCCN)NC(=O)[C@H](C)NC(=O)[C@H](C)NC(=O)[C@H](CCC(=O)O)NC(=O)CNC(=O)[C@H](CCC(=O)O)NC(=O)[C@H](CC(C)C)NC(=O)[C@](C)(Cc1ccccc1)NC(=O)[C@H](CO)NC(=O)[C@H](CO)NC(=O)[C@@H](NC(=O)[C@H](CC(=O)O)NC(=O)[C@](C)(CO)NC(=O)[C@@H](NC(=O)[C@](C)(Cc1ccccc1)NC(=O)[C@H](CO)NC(=O)CNC(=O)[C@H](CCC(=O)O)NC(=O)C(C)(C)NC(=O)[C@@H](N)Cc1c[nH]cn1)[C@@H](C)O)C(C)C)C(=O)N[C@@H](C)C(=O)N[C@@](C)(Cc1ccccc1)C(=O)N[C@H](C(=O)N[C@H](C(=O)N[C@@](C)(CCCCN)C(=O)NCC(=O)NCC(N)=O)C(C)C)C(C)C` [compound 16], the EC50 is 11000 pM in test [1] (setting [4]); 9400 pM in test [1] (setting [5]); 10100 pM in test [1] (setting [6]); no less than 100 nM in test [2] (setting [7]); no less than 100 nM in test [2] (setting [8]); no less than 100 nM in test [3] (setting [9]). The EC50 in test [3] (setting [10]) is no less than 100 nM.

`CCCCCCCCCCCCCCCC(=O)N[C@@H](CCC(=O)NCCCC[C@H](NC(=O)[C@H](C)NC(=O)[C@H](C)NC(=O)[C@H](CCC(=O)O)NC(=O)CNC(=O)[C@H](CCC(=O)O)NC(=O)[C@H](CC(C)C)NC(=O)[C@](C)(Cc1ccccc1)NC(=O)[C@H](CO)NC(=O)[C@](C)(CO)NC(=O)[C@@H](NC(=O)[C@H](CC(=O)O)NC(=O)[C@H](CO)NC(=O)[C@@H](NC(=O)[C@](C)(Cc1ccccc1)NC(=O)[C@H](CO)NC(=O)CNC(=O)[C@H](CCC(=O)O)NC(=O)C(C)(C)NC(=O)[C@@H](N)Cc1c[nH]cn1)[C@@H](C)O)C(C)C)C(=O)N[C@@H](CCC(=O)O)C(=O)N[C@@](C)(Cc1ccccc1)C(=O)N[C@H](C(=O)N[C@@H](C)C(=O)N[C@@](C)(Cc1ccccc1)C(=O)N[C@H](C(=O)N[C@H](C(=O)N[C@@](C)(CCCCN)C(=O)NCC(=O)NCC(N)=O)C(C)C)C(C)C)[C@@H](C)CC)C(=O)O` [compound 34]: the EC50 is 39 pM in test [1] (setting [4]); 48 pM in test [1] (setting [5]); 43 pM in test [1] (setting [6]); no less than 93 nM in test [2] (setting [7]); no less than 93 nM in test [2] (setting [8]); no less than 93 nM in test [3] (setting [9]). For the same molecule, the EC50 in test [3] (setting [10]) is no less than 93 nM.

With `CCCCCCCCCCCC(=O)NCCCCCC(=O)NCCCC[C@H](NC(=O)[C@H](C)NC(=O)[C@H](C)NC(=O)[C@H](CCC(=O)O)NC(=O)CNC(=O)[C@H](CCC(=O)O)NC(=O)[C@H](CC(C)C)NC(=O)[C@](C)(Cc1ccccc1)NC(=O)[C@H](CO)NC(=O)[C@](C)(CO)NC(=O)[C@@H](NC(=O)[C@H](CC(=O)O)NC(=O)[C@H](CO)NC(=O)[C@@H](NC(=O)[C@](C)(Cc1ccccc1)NC(=O)[C@H](CO)NC(=O)CNC(=O)[C@H](CCC(=O)O)NC(=O)C(C)(C)NC(=O)[C@@H](N)Cc1c[nH]cn1)[C@@H](C)O)C(C)C)C(=O)N[C@@H](CCC(=O)O)C(=O)N[C@@](C)(Cc1ccccc1)C(=O)N[C@H](C(=O)N[C@@H](C)C(=O)N[C@@](C)(Cc1ccccc1)C(=O)N[C@H](C(=O)N[C@H](C(=O)N[C@@](C)(CCCCN)C(=O)NCC(=O)NCC(N)=O)C(C)C)C(C)C)[C@@H](C)CC` [compound 131], the EC50 was 14 pM in test [1] (setting [4]); 9.9 pM in test [1] (setting [5]); 11.7 pM in test [1] (setting [6]); no less than 29 nM in test [2] (setting [7]); no less than 29 nM in test [2] (setting [8]); no less than 29 nM in test [3] (setting [9]). In test [3] (setting [10]), the EC50 was no less than 29 nM.

As to `CC[C@H](C)[C@H](NC(=O)[C@](C)(Cc1ccccc1)NC(=O)[C@H](CCC(=O)O)NC(=O)[C@H](CCCCN)NC(=O)[C@H](C)NC(=O)[C@H](C)NC(=O)[C@H](CCC(=O)O)NC(=O)CNC(=O)[C@H](CCC(=O)O)NC(=O)[C@H](CC(C)C)NC(=O)[C@](C)(Cc1ccccc1)NC(=O)[C@H](CO)NC(=O)[C@H](CO)NC(=O)[C@@H](NC(=O)[C@H](CC(=O)O)NC(=O)[C@H](CO)NC(=O)[C@@H](NC(=O)[C@](C)(Cc1ccccc1)NC(=O)[C@H](CO)NC(=O)CNC(=O)[C@H](CCC(=O)O)NC(=O)C(C)(C)NC(=O)[C@@H](N)Cc1c[nH]cn1)[C@@H](C)O)C(C)C)C(=O)N[C@@H](C)C(=O)N[C@@](C)(Cc1ccccc1)C(=O)N[C@H](C(=O)N[C@H](C(=O)N[C@@H](CCCCN)C(=O)NCC(=O)NCC(=O)N[C@@H](CCCCNC(=O)COCCOCCNC(=O)COCCOCCNC(=O)CC[C@H](NC(=O)CCCCCCCCCCCCCCCCC(=O)O)C(=O)O)C(N)=O)C(C)C)C(C)C` [compound 38], the EC50 in test [1] (setting [4]) is 62 pM; in test [1] (setting [5]) it was 82 pM; in test [1] (setting [6]), 72 pM; in test [2] (setting [7]) it was 25 nM; in test [2] (setting [8]), 25 nM; in test [3] (setting [9]), 25 nM. For the same molecule, the EC50 in test [3] (setting [10]) worked out at 25 nM.

For the molecule `CC[C@H](C)[C@H](NC(=O)[C@](C)(Cc1ccccc1)NC(=O)[C@H](CCC(=O)O)NC(=O)[C@](C)(CCCCN)NC(=O)[C@H](C)NC(=O)[C@H](C)NC(=O)[C@H](CCC(=O)O)NC(=O)CNC(=O)[C@H](CCC(=O)O)NC(=O)[C@H](CC(C)C)NC(=O)[C@](C)(Cc1ccccc1)NC(=O)[C@H](CO)NC(=O)[C@H](CO)NC(=O)[C@@H](NC(=O)[C@H](CC(=O)O)NC(=O)[C@H](CO)NC(=O)[C@H](CO)NC(=O)[C@](C)(Cc1ccccc1)NC(=O)[C@H](CO)NC(=O)CNC(=O)[C@H](CCC(=O)O)NC(=O)C(C)(C)NC(=O)[C@@H](N)Cc1c[nH]cn1)C(C)C)C(=O)N[C@@H](C)C(=O)N[C@@](C)(Cc1ccccc1)C(=O)N[C@H](C(=O)N[C@H](C(=O)N[C@@](C)(CCCCN)C(=O)NCC(=O)NCC(N)=O)C(C)C)C(C)C` [compound 8] (H-H[Aib]EGS[αMeF]SSDVSS[αMeF]LEGEAA[αMeK]E[αMeF]IA[αMeF]VV[αMeK]GG-NH2; N-terminus assumed), the EC50 in test [1] (setting [4]) is 71 pM; in test [1] (setting [5]), 110 pM; in test [1] (setting [6]) it was 88 pM; in test [2] (setting [7]) it was 7.8 nM; in test [2] (setting [8]) it was 12 nM; in test [3] (setting [9]), 23 nM. In test [3] (setting [10]), the EC50 came out at 23 nM.

`CC[C@H](C)[C@H](NC(=O)[C@](C)(Cc1ccccc1)NC(=O)[C@H](CCC(=O)O)NC(=O)[C@](C)(CCCCN)NC(=O)[C@H](C)NC(=O)[C@H](C)NC(=O)[C@H](CCC(=O)O)NC(=O)CNC(=O)[C@H](CCC(=O)O)NC(=O)[C@H](CC(C)C)NC(=O)[C@](C)(Cc1ccccc1)NC(=O)[C@H](CO)NC(=O)[C@](C)(CO)NC(=O)[C@@H](NC(=O)[C@H](CC(=O)O)NC(=O)[C@@H](NC(=O)[C@@H](NC(=O)[C@](C)(Cc1ccccc1)NC(=O)[C@H](CO)NC(=O)CNC(=O)[C@H](CCC(=O)O)NC(=O)C(C)(C)NC(=O)[C@@H](N)Cc1c[nH]cn1)[C@@H](C)O)C(C)C)C(C)C)C(=O)N[C@@H](C)C(=O)N[C@@](C)(Cc1ccccc1)C(=O)N[C@H](C(=O)N[C@H](C(=O)N[C@@](C)(CCCCN)C(=O)NCC(=O)NCC(N)=O)C(C)C)C(C)C` [compound 30] (H-H[Aib]EGS[αMeF]TVDV[αMeS]S[αMeF]LEGEAA[αMeK]E[αMeF]IA[αMeF]VV[αMeK]GG-NH2; N-terminus assumed): the EC50 was 80000 pM in test [1] (setting [4]); 97000 pM in test [1] (setting [5]); 88600 pM in test [1] (setting [6]); no less than 100 nM in test [2] (setting [7]); no less than 100 nM in test [2] (setting [8]); no less than 100 nM in test [3] (setting [9]). In addition, in test [3] (setting [10]), the EC50 was no less than 100 nM.
